Measurements: patent US9682013B2, “Pharmaceutical compositions comprising human antibodies to PCSK9” (SANOFI BIOTECHNOLOGY, priority 2011, dated 2017)
pKd: −log10 of the molar value.

Legend:
hPCSK9 D238 mutated = hPCSK9 D238 mutated (Homo sapiens, UniProt Q8NBP7, D238R); conditions: cited from earlier work
hPCSK9 = hPCSK9 (Homo sapiens, UniProt Q8NBP7); conditions: unmutated hPCSK9; cited from earlier work
male Syrian hamster = assay: Study 4: cholesterol lowering effect of 316P alone and with atorvastatin in hamster; type: in vivo
From the text: This is an animal study on the cholesterol lowering effect of 316P, a fully human PCSK9 blocking monoclonal antibody in male Syrian hamster
The aim of this study was to investigate the effect of 316P, a human monoclonal antibody to human PCSK9, alone and in combination with statins on expression of the hepatic LDLR and the resulting effects on serum LDL-C.
The maximal effect on LDL-C (−17/−27/−60%) was seen within 7 days. PK data of 316P are in line with the dose-dependent effect on LDL-C.

[1] = system: patients with an elevated LDL-C (≧100 mg/dL or 2.59 mmol/L) treated with a stable dose of atorvastatin 10 mg; assay: Study 2: randomized, double-blind, placebo-controlled 8-week study of 316P 150 mg E2W with atorvastatin 10 mg or 80 mg; type: in vivo, human
Experimental: This was a randomized, double-blind, 3-parallel-groups, placebo-controlled, fixed dose/dose regimen, multicenter, 8-week study in subjects with primary hypercholesterolemia, aged 18-75 years. One aim of this study was to assess the efficacy and safety of 316P in patients with an elevated LDL-C (≧100 mg/dL or 2.59 mmol/L) treated with a stable dose of atorvastatin 10 mg.
During the screening period, patients had to be stabilized to atorvastatin 10 mg for at least 6 weeks, if they are not already. Then, after 1 additional screening week, patients were centrally randomized via IVRS/IWRS in a 1:1:1 ratio to one of the 3 treatment groups (placebo for 316P+atorvastatin 80 mg, 316P 150 mg E2W+atorvastatin 80 mg, 316P 150 mg E2W+atorvastatin 10 mg) and treated in a double-blind manner for approximately 8 weeks. 316P was administered every 2 weeks on site trough subcutaneous injection and atorvastatin was administered orally once daily in the evening at home. The double-blind treatment period was then followed by an 8-week follow-up period.
Inclusion criteria: • Patients (patients receiving a lipid lowering treatment other than atorvastatin/or not at stable dose of atorvastatin 10 mg for at least 6 weeks prior to screening period, or drug naive patients) with primary hypercholesterolemia likely to have low-density lipoprotein cholesterol (LDL-C)≧100 mg/dL (≧2.59 mmol/L) at the end of the run-in period on atorvastatin therapy (Week-1). • OR • Patients with primary hypercholesterolemia treated with stable dose of atorvastatin 10 mg for at least 6 weeks prior to screening period and likely to have low-density lipoprotein cholesterol (LDL-C)≧100 mg/dL (≧2.59 mmol/L) at the screening visit (Week-1).
Duration of Study Period Per Subject:
• Arm 1: The first group of patients receives one subcutaneous injection of 1 mL of antibody 316P, administered in the abdomen every two weeks, with a dose regimen at 150 mg, for a double-blind treatment period of 8 weeks; • Atorvastatin is administered once per day at a stable dose of 10 mg as background therapy. • Atorvastatin is administered at a dose of 80 mg once during the double-blind treatment period of 8 weeks. • Arm 2: The second group of patients receives one subcutaneous injection of 1 mL of a placebo solution, administered in the abdomen every two weeks, with a dose regimen at 150 mg, for a double-blind treatment period of 8 weeks; • Atorvastatin is administered once per day at a stable dose of 10 mg as background therapy. • Atorvastatin is administered at a dose of 80 mg (2 over-encapsulated atorvastatin 40 mg tablets) once during the double-blind treatment period of 8 weeks. • Arm 3: The third group of patients receives one subcutaneous injection of 1 mL of antibody 316P, administered in the abdomen every two weeks, with a dose regimen at 150 mg, for a double-blind treatment period of 8 weeks; • Atorvastatin is administered once per day at a stable dose of 10 mg as background therapy. • Atorvastatin is administered at a dose of 10 mg (1 over-encapsulated atorvastatin 10 mg tablet+1 matching placebo tablet) once during the double-blind treatment period of 8 weeks. Primary and Key Secondary Endpoints Primary Endpoints
The primary efficacy variable is the percent change in calculated LDL-C from baseline to Week 8, which is defined as: 100×(calculated LDL-C value at Week 8-calculated LDL-C value at baseline)/calculated LDL-C value at baseline.
In case of unavailable calculated LDL-C value at Week 8 as defined above, then the last calculated LDL-C value measured during the efficacy period and before the Week 8 time window was used to impute the missing Week 8 calculated LDL-C value (Last Observation Carried Forward [LOCF] procedure). […]

[2] = single s.c. injection 1/3/10 mg/kg
[3] = 316P 150 mg with atorvastatin, 8 weeks, consistent with LDL-C decrease
[4] = 316P 150 mg+atorvastatin 80 mg vs placebo+atorvastatin 80 mg, p<0.0001

Sequence of hPCSK9 D238 mutated (Q8NBP7 153-692 D238R): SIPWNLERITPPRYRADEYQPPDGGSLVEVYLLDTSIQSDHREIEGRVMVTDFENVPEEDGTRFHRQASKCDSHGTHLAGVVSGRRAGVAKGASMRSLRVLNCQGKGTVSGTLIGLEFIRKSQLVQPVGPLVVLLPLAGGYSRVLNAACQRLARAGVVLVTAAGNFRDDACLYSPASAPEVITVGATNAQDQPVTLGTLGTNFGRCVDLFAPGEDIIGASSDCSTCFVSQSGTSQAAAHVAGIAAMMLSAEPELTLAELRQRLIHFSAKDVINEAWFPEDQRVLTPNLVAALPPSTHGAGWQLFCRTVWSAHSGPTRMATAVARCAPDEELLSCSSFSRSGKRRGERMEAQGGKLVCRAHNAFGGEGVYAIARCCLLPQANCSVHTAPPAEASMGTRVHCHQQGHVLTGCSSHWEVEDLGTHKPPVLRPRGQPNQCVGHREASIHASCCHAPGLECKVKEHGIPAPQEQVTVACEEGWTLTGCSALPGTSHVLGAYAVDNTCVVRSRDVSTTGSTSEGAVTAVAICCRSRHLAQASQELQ
Sequence of hPCSK9 (Q8NBP7 153-692): as the sequence (Q8NBP7 153-692 D238R) above, with R86D counted along it

316P: fully human anti-PCSK9 antibody comprising a HCVR as shown in SEQ ID NO: 90 and LCVR as shown in SEQ ID NO: 92 [Antibody 316P]
T1/2 decrease (hPCSK9 D238 mutated; D238 mutated vs unmutated): > 30 fold
reduction in binding affinity (hPCSK9 D238 mutated; D238 mutated vs unmutated): > 400 fold
pKd (hPCSK9 D238 mutated; D238 mutated): ~6.39
pKd (hPCSK9): ~9.00
LDLR expression (male Syrian hamster; 316P on top of Atorvastatin): increased LDLR expression
serum LDL-C (male Syrian hamster; 316P on top of Atorvastatin): decreased serum LDL-C
statin resistance (male Syrian hamster; 316P on top of Atorvastatin): could overcome the statin resistance
combination treatment compared with single treatment (male Syrian hamster; 316P plus Atorvastatin): more effective than single treatment with 316P alone
maximal effect on LDL-C (male Syrian hamster; single s.c. injection 1 mg/kg): −17%
maximal effect on LDL-C (male Syrian hamster; single s.c. injection 3 mg/kg): −27%
maximal effect on LDL-C (male Syrian hamster; single s.c. injection 10 mg/kg): −60%
duration of dose-dependent decrease in LDL-C (male Syrian hamster; [2]): more than 2 weeks
time to maximal effect on LDL-C (male Syrian hamster; [2]): ≤ 7 days
safety signal ([1]; 150 mg E2W, 8 weeks): No particular safety signal was noted
tolerability ([1]; 150 mg E2W, 8 weeks of treatment, all treatment groups): well tolerated
HDL-C ([1]; 316P 150 mg co-administered with atorvastatin 10 mg or 80 mg): trend of increase
HDL-C percent change from baseline, LS mean ([1]; 316P 150 mg co-administered with atorvastatin 10 mg, 8 weeks): +2.6%
HDL-C percent change from baseline, LS mean ([1]; 316P 150 mg co-administered with atorvastatin 80 mg, 8 weeks): +5.8%
Apo-B/ApoA-1 ratio [1, 3]: Consistent results
ApoB [1, 3]: Consistent results
Total-C [1, 3]: Consistent results
non HDL-C [1, 3]: Consistent results
median reduction from baseline in LDL-C at 8 weeks ([1]; 316P 150 mg+atorvastatin 10 mg group): −70.4%
median reduction from baseline in LDL-C at 8 weeks ([1]; 316P 150 mg+atorvastatin 80 mg group): −70.6%
LS mean difference in percent change from baseline in LDL-C at 8 weeks [1, 4]: −55.8%
effect size estimate, rank-based analysis of covariance, percent change in LDL-C at 8 weeks [1, 4]: −54.5%
troponin levels ([1]; all treatment groups): no change
